Results from patent publication US12544395B2, “Combination compositions comprising a beta-lactamase inhibitor and uses thereof” (priority 2018, dated 2026).

Key:
Format in all cases: cell-based
K. pneumoniae ESBL 8 #1 = assay: Broth microdilution MIC (strain enzymes: TEM-1, SHV-12); settings: with inhibitor at 4 μg/mL
K. pneumoniae BAA 1705 = assay: Broth microdilution MIC (strain KPC-producing)
K. pneumoniae ESBL 10 = assay: Broth microdilution MIC (strain enzymes: SHV-12, TEM-1)
E. coli 2150 = assay: Broth microdilution MIC (strain enzymes: SHV-3, TEM-1)
E. coli SI-V502 = assay: Broth microdilution MIC (strain enzymes: TEM-29, CTX-M15)
K. oxytoca 169219 = assay: Broth microdilution MIC (strain enzymes: TEM-1, CTXM-15)
E. coli BAS 1 = assay: Broth microdilution MIC (strain enzymes: none detected)
E. coli ESBL 5 = assay: Broth microdilution MIC (strain enzymes: CTX-M15, TEM-1)
K. pneumoniae 319478 = assay: Broth microdilution MIC (strain enzymes: SHV-12, CTX-M3 and TEM-1)
K. oxytoca 176877 = assay: Broth microdilution MIC (strain enzymes: SHV-105)

## CCC(=O)N[C@H]1Cc2cccc(C(=O)O)c2OB1O [Compound 2, (R)-2-hydroxy-3-propionamido-3,4-dihydro-2H-benzo[e][1,2]oxaborinine-8-carboxylic acid]
K. pneumoniae ESBL 8 #1
  MIC of cefdinir (CDR): 0.25 µg/mL
  MIC of cefixime (CFM): 0.25 µg/mL
  MIC of ceftibuten (CTB): 0.06 µg/mL
K. pneumoniae BAA 1705; with inhibitor at 1 μg/mL
  MIC of cefalexin (LEX): 4 µg/mL
  MIC of cefdinir (CDR): 4 µg/mL
  MIC of cefixime (CFM): 0.5 µg/mL
  MIC of ceftibuten (CTB): 0.5 µg/mL
K. pneumoniae BAA 1705; with inhibitor at 2 μg/mL
  MIC of cefalexin (LEX): 2 µg/mL
  MIC of cefdinir (CDR): 2 µg/mL
  MIC of cefixime (CFM): 0.5 µg/mL
  MIC of ceftibuten (CTB): 0.5 µg/mL
K. pneumoniae BAA 1705; with inhibitor at 4 μg/mL
  MIC of cefalexin (LEX): 1 µg/mL
  MIC of cefdinir (CDR): 1 µg/mL
  MIC of cefixime (CFM): 0.25 µg/mL
  MIC of ceftibuten (CTB): 0.25 µg/mL
K. pneumoniae ESBL 10; with inhibitor at 1 μg/mL
  MIC of cefalexin (LEX): 1 µg/mL
  MIC of cefdinir (CDR): 1 µg/mL
  MIC of cefixime (CFM): 2 µg/mL
  MIC of ceftibuten (CTB): 0.25 µg/mL
K. pneumoniae ESBL 10; with inhibitor at 2 μg/mL
  MIC of cefalexin (LEX): 1 µg/mL
  MIC of cefdinir (CDR): 1 µg/mL
  MIC of cefixime (CFM): 1 µg/mL
  MIC of ceftibuten (CTB): 0.25 µg/mL
K. pneumoniae ESBL 10; with inhibitor at 4 μg/mL
  MIC of cefalexin (LEX): 0.5 µg/mL
  MIC of cefdinir (CDR): 0.5 µg/mL
  MIC of cefixime (CFM): 0.5 µg/mL
  MIC of ceftibuten (CTB): 0.25 µg/mL
E. coli 2150; with inhibitor at 1 μg/mL
  MIC of cefalexin (LEX): 1 µg/mL
  MIC of cefdinir (CDR): 1 µg/mL
  MIC of cefixime (CFM): 0.5 µg/mL
  MIC of ceftibuten (CTB): 0.125 µg/mL
E. coli 2150; with inhibitor at 2 μg/mL
  MIC of cefalexin (LEX): 0.5 µg/mL
  MIC of cefdinir (CDR): 0.5 µg/mL
  MIC of cefixime (CFM): 0.5 µg/mL
  MIC of ceftibuten (CTB): 0.125 µg/mL
E. coli 2150; with inhibitor at 4 μg/mL
  MIC of cefalexin (LEX): 0.5 µg/mL
  MIC of cefdinir (CDR): 0.5 µg/mL
  MIC of cefixime (CFM): 0.25 µg/mL
  MIC of ceftibuten (CTB): 0.06 µg/mL
E. coli SI-V502; with inhibitor at 1 μg/mL
  MIC of cefalexin (LEX): 1 µg/mL
  MIC of cefdinir (CDR): 1 µg/mL
  MIC of cefixime (CFM): 0.25 µg/mL
  MIC of ceftibuten (CTB): 0.25 µg/mL
E. coli SI-V502; with inhibitor at 2 μg/mL
  MIC of cefalexin (LEX): 0.5 µg/mL
  MIC of cefdinir (CDR): 0.5 µg/mL
  MIC of cefixime (CFM): 0.5 µg/mL
  MIC of ceftibuten (CTB): 0.25 µg/mL
E. coli SI-V502; with inhibitor at 4 μg/mL
  MIC of cefalexin (LEX): 0.5 µg/mL
  MIC of cefdinir (CDR): 0.5 µg/mL
  MIC of cefixime (CFM): 0.25 µg/mL
  MIC of ceftibuten (CTB): 0.125 µg/mL
K. oxytoca 169219; with inhibitor at 1 μg/mL
  MIC of cefalexin (LEX): 1 µg/mL
  MIC of cefdinir (CDR): 1 µg/mL
  MIC of cefixime (CFM): 0.25 µg/mL
  MIC of ceftibuten (CTB): 0.03 µg/mL
K. oxytoca 169219; with inhibitor at 2 μg/mL
  MIC of cefalexin (LEX): 0.5 µg/mL
  MIC of cefdinir (CDR): 0.5 µg/mL
  MIC of cefixime (CFM): 0.125 µg/mL
  MIC of ceftibuten (CTB): 0.0149 µg/mL
K. oxytoca 169219; with inhibitor at 4 μg/mL
  MIC of cefalexin (LEX): 0.5 µg/mL
  MIC of cefdinir (CDR): 0.5 µg/mL
  MIC of cefixime (CFM): 0.125 µg/mL
  MIC of ceftibuten (CTB): 0.0149 µg/mL
E. coli BAS 1; with inhibitor at 1 μg/mL
  MIC of cefalexin (LEX): 1 µg/mL
  MIC of cefdinir (CDR): 1 µg/mL
  MIC of cefixime (CFM): 8 µg/mL
  MIC of ceftibuten (CTB): 1 µg/mL
E. coli BAS 1; with inhibitor at 2 μg/mL
  MIC of cefalexin (LEX): 1 µg/mL
  MIC of cefdinir (CDR): 1 µg/mL
  MIC of cefixime (CFM): 2 µg/mL
  MIC of ceftibuten (CTB): 1 µg/mL
E. coli BAS 1; with inhibitor at 4 μg/mL
  MIC of cefalexin (LEX): 2 µg/mL
  MIC of cefdinir (CDR): 2 µg/mL
  MIC of cefixime (CFM): 1 µg/mL
  MIC of ceftibuten (CTB): 0.5 µg/mL
E. coli ESBL 5; with inhibitor at 1 μg/mL
  MIC of cefalexin (LEX): 8 µg/mL
  MIC of cefdinir (CDR): 8 µg/mL
  MIC of cefixime (CFM): 1 µg/mL
  MIC of ceftibuten (CTB): 0.25 µg/mL
E. coli ESBL 5; with inhibitor at 2 μg/mL
  MIC of cefalexin (LEX): 2 µg/mL
  MIC of cefdinir (CDR): 2 µg/mL
  MIC of cefixime (CFM): 1 µg/mL
  MIC of ceftibuten (CTB): 0.125 µg/mL
E. coli ESBL 5; with inhibitor at 4 μg/mL
  MIC of cefalexin (LEX): 2 µg/mL
  MIC of cefdinir (CDR): 2 µg/mL
  MIC of cefixime (CFM): 0.5 µg/mL
  MIC of ceftibuten (CTB): 0.125 µg/mL
K. pneumoniae 319478; with inhibitor at 1 μg/mL
  MIC of cefalexin (LEX): 4 µg/mL
  MIC of cefdinir (CDR): 4 µg/mL
  MIC of cefixime (CFM): 2 µg/mL
  MIC of ceftibuten (CTB): 0.125 µg/mL
K. pneumoniae 319478; with inhibitor at 2 μg/mL
  MIC of cefalexin (LEX): 2 µg/mL
  MIC of cefdinir (CDR): 2 µg/mL
  MIC of cefixime (CFM): 2 µg/mL
  MIC of ceftibuten (CTB): 0.25 µg/mL
K. pneumoniae 319478; with inhibitor at 4 μg/mL
  MIC of cefalexin (LEX): 2 µg/mL
  MIC of cefdinir (CDR): 2 µg/mL
  MIC of cefixime (CFM): 1 µg/mL
  MIC of ceftibuten (CTB): 0.125 µg/mL
K. oxytoca 176877; with inhibitor at 1 μg/mL
  MIC of cefalexin (LEX): 2 µg/mL
  MIC of cefdinir (CDR): 2 µg/mL
  MIC of cefixime (CFM): 1 µg/mL
  MIC of ceftibuten (CTB): 0.5 µg/mL
K. oxytoca 176877; with inhibitor at 2 μg/mL
  MIC of cefalexin (LEX): 2 µg/mL
  MIC of cefdinir (CDR): 2 µg/mL
  MIC of cefixime (CFM): 0.5 µg/mL
  MIC of ceftibuten (CTB): 0.125 µg/mL
K. oxytoca 176877; with inhibitor at 4 μg/mL
  MIC of cefalexin (LEX): 1 µg/mL
  MIC of cefdinir (CDR): 1 µg/mL
  MIC of cefixime (CFM): 0.5 µg/mL
  MIC of ceftibuten (CTB): 0.25 µg/mL
